Values quoted from earlier work, collected in patent US20130130972A1, “ARTIFICIAL SWEETNERS AND PERFORMANCE” (priority 2010, published 2013).
Where a SMILES comes first, the peptide text is derived from it.

Details: typically perceived sweetness, relative to sugar

Row | Molecule | Sweetness by weight compared to sugar
1 | CC1=CC(=O)NS(=O)(=O)O1 [Acesulfame potassium] | 200×
2 | C[C@@H](NC(=O)[C@@H](N)CC(=O)O)C(=O)NC1C(C)(C)SC1(C)C [Alitame] | 2.000×
3 | COC(=O)[C@H](Cc1ccccc1)NC(=O)[C@@H](N)CC(=O)O [Aspartame] (H-Asp-Phe-OMe) | 160-200×
4 | CCOc1ccc(NC(N)=O)cc1 [Dulcin] | 250×
5 | OC[C@@H](O)[C@@H](O)CO [Erythritol] | 0.7×
6 | OCC(O)CO [Glycerol] | 0.6×
7 | CC1(C)[C@@H](O[C@H]2O[C@H](C(=O)O)[C@@H](O)[C@H](O)[C@H]2O[C@@H]2O[C@H](C(=O)O)[C@@H](O)[C@H](O)[C@H]2O)CC[C@]2(C)[C@H]3C(=O)C=C4[C@@H]5C[C@@](C)(C(=O)O)CC[C@]5(C)CC[C@@]4(C)[C@]3(C)CC[C@@H]12 [Glycyrrhizin] | 50×
8 | OC[C@@H](O)[C@@H](O[C@@H]1O[C@H](CO)[C@H](O)[C@H](O)[C@H]1O)[C@H](O)[C@@H](O)CO [Lactitol] | 0.4×
9 | OC[C@@H](O)[C@@H](O[C@H]1O[C@H](CO)[C@@H](O)[C@H](O)[C@H]1O)[C@H](O)[C@@H](O)CO [Maltitol] | 0.9×
10 | OC[C@@H](O)[C@@H](O)[C@H](O)[C@H](O)CO [Mannitol] | 0.5×
11 | COc1ccc(CCC(=O)c2c(O)cc(O[C@@H]3O[C@H](CO)[C@@H](O)[C@H](O)[C@H]3O[C@@H]3O[C@@H](C)[C@H](O)[C@@H](O)[C@H]3O)cc2O)cc1O [Neohesperidin dihydrochalcone] | 1500×
12 | COC(=O)[C@H](Cc1ccccc1)NC(=O)[C@H](CC(=O)O)NCCC(C)(C)C [Neotame] | 8000×
13 | CCCOc1ccc([N+](=O)[O-])cc1N [P-4000] | 4000×
14 | O=C1NS(=O)(=O)c2ccccc21 [Saccharin] | 300×
15 | CC1=CC(=O)NS(=O)(=O)O1.COC(=O)[C@H](Cc1ccccc1)NC(=O)[C@@H](N)CC(=O)O [Salt of aspartame-acesulfame] (H-Asp-Phe-OMe) | 350×
16 | OC[C@@H](O)[C@@H](O)[C@H](O)[C@@H](O)CO [Sorbitol] | 0.6×
17 | OC[C@H]1O[C@H](O[C@]2(CCl)O[C@H](CCl)[C@@H](O)[C@@H]2O)[C@H](O)[C@@H](O)[C@H]1Cl [Sucralose] | 600×
18 | O=C(CO)[C@@H](O)[C@@H](O)[C@H](O)CO [Tagatose] | 0.92×
19 | OC[C@@H](O)[C@H](O)[C@@H](O)CO [Xylitol] | 1.0×
20 | Brazzein (QDKCKKVYENYPVSKCQLANQCNYDCKLDKHARSGECFYDEKRNLQCICDYCEY; UniProt P56552 1-54, looked up) [natural sugar substitute] | 800×
21 | Curculin | 550×
22 | Glucin | 300×
23 | Mabinlin [Mabinlin Protein] | 100×
24 | Monellin | 3000×
25 | Pentadin | 500×
26 | Thaumatin | 2000×
